Values of other authors in patent US20260263394A1, “MEDICAL PATCH […] […] AGENT” (LTS LOHMANN THERAPIE-SYSTEME AG, priority 2023, published 2026).

What was measured:
[1] = sub-microgram (less than 1/1,000,000th of a gram) quantities, oral
[2] = target: TRPV1 (Homo sapiens, UniProt Q8NER1); conditions: relative to capsaicin
TRPV1, sequence (Q8NER1 whole entry, species assumed): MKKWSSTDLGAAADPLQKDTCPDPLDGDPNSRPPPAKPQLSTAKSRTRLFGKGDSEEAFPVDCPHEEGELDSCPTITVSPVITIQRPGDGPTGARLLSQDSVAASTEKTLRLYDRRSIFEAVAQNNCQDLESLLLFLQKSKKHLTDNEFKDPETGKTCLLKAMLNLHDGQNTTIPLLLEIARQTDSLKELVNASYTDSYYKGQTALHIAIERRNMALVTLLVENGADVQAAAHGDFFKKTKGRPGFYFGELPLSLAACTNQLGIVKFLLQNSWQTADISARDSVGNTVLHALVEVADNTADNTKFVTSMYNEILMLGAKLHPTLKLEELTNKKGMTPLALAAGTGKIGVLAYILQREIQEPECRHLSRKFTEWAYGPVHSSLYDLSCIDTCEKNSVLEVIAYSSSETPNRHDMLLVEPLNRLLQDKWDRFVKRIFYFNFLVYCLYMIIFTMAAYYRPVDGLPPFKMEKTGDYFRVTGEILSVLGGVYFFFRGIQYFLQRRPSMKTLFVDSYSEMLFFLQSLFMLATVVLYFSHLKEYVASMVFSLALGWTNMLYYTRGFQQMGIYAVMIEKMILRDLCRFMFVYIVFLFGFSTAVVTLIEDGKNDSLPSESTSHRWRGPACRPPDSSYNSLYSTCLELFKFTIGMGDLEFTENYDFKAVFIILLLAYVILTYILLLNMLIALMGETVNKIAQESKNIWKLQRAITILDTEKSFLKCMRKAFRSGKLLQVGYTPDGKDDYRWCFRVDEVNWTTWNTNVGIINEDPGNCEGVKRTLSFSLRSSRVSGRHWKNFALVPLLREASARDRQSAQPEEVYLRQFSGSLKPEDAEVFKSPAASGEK

C=C(C)[C@]12C[C@@H](C)[C@@]34O[C@@](Cc5ccccc5)(O[C@@H]1[C@@H]3C=C(COC(=O)Cc1ccc(O)c(OC)c1)C[C@]1(O)C(=O)C(C)=C[C@@H]41)O2 [Resiniferatoxin, [(1R,2R,6R,10S,11R,13R, 15R, 17R)-13-benzyl-6-hydroxy-4,17-dimethyl-5-oxo-15-(prop-1-en-2-yl)-12,14,18-trioxapentacyclo [11.4.1.0^1,10.0^2,6.0^11,15]octadeca-3,8-dien-8-yl]methyl 2-(4-hydroxy-3-methoxyphenyl)acetate]
effect when ingested orally [1]: severe burning pain | times higher binding affinity for TRPV1 than capsaicin [2]: about 500 times
